Assay results published in US8853258B2, “C-linked hydroxamic acid derivatives useful as antibacterial agents” (Pfizer Inc., priority 2009, dated 2014).
In brackets after ≈: the same amount, converted by molar mass. Where two headings read alike, the source gives them in different places.

What was measured:
[1] = test system: Klebsiella pneumoniae: Ciprofloxacin-resistant isolate, ESBL, clinical isolate (KP-3700); test: MIC determination (CLSI), KP-3700; type: cell-based
Summary of the method: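 Strain KP-3700, a clinical isolate producing extended-spectrum β-lactamases and resistant to ciprofloxacin, was tested. Minimum inhibitory concentrations determined via CLSI dilution methodology (M7-A7; M100-S18).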

[2] = test system: Acinetobacter baumanii/haemolyticus: Multidrug-resistant clinical isolate (AB-3167); test: MIC determination (CLSI), AB-3167; type: cell-based; conditions: for MIC: Acinetobacter baumannii
Summary of the method: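 Multidrug-resistant clinical isolate AB-3167 (A. baumannii/haemolyticus) tested for minimum inhibitory concentration following CLSI dilution susceptibility standards M7-A7 and M100-S18.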

[3] = test system: Escherichia coli EC-1: VOGEL, mouse virulent; test: MIC determination (CLSI), EC-1; type: cell-based; conditions: for MIC: Escherichia coli
Summary of the method: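 E. coli Vogel, a mouse-virulent strain (EC-1), was tested. MICs were set by dilution susceptibility testing per CLSI standards M7-A7/M100-S18.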

[4] = test system: Pseudomonas aeruginosa UI-18: Wild-type (PA-7); test: MIC determination (CLSI), PA-7; type: cell-based; conditions: for MIC: Pseudomonas aeruginosa
Summary of the method: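 Wild-type P. aeruginosa UI-18 tested for minimum inhibitory concentration. Broth/agar dilution following CLSI standards (M7-A7, M100-S18).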

[5] = biological target: Pseudomonas aeruginosa LpxC enzyme (Pseudomonas aeruginosa (strain ATCC 15692 / DSM 22644 / CIP 104116 / JCM 14847 / LMG 12228 / 1C / PRS 101 / PAO1), UniProt P47205); test: IC50 Assay, LpxC Enzyme from P. aeruginosa (PA LpxC Enzyme IC50); type: biochemical
Experimental: In order to assess the compounds biological activity, selected in-vitro assays were conducted on selected compounds. One of the assays measured the compounds ability to disrupt the synthesis of lipopolysaccharide, LPS, which is a component of the outer membrane of Gram-negative bacteria. Disruption of this synthesis is lethal to the bacteria. The assay determined the compound's ability to inhibit LpxC, which is the first enzyme in the biosynthetic pathway for LPS (measured as IC50). Additionally, MICs (minimal inhibitory concentrations) were determined for several bacteria. The specific protocols are described below:
A) IC50 Assay, LpxC Enzyme from P. aeruginosa (Labled as PA LpxC Enzyme IC50
At the end of 1 hour, 5 ul of 1N HCl was added to stop the enzyme reaction; the plates were centrifuged, and then processed with the BioTrove Rapidfire HTMS Mass Spectrometry System. A no-enzyme control was used in calculating the IC50 values from the percent conversion values.

[6] = Acinetobacter baumanii/haemolyticus AB-3167
[7] = Pseudomonas aeruginosa UI-18 (PA-7)
[8] = P. aeruginosa LpxC enzyme, read-out: PA LpxC enzyeme IC50
[9] = Acinetobacter baumanii/haemolyticus multidrug-resistant clinical isolate AB-3167
[10] = Escherichia coli EC-1 VOGEL, mouse virulent
[11] = Pseudomonas aeruginosa UI-18 wild-type PA-7
[12] = Table 3, read-out: PA LpxC enzyeme IC^50
[13] = Table 1, MIC, read-out: AB-3167 (MIC)
[14] = Table 1, MIC, read-out: PA-7 (MIC)

Compound | KP-3700 MIC [1] | AB-3167 MIC [2, 9] | EC-1 MIC [3, 10] | PA-7 MIC [4, 11] | other results
C[C@@](CCc1ccc(-c2ccc3c(c2)C(=O)NC3)cc1)(C(=O)NO)S(C)(=O)=O [Example 208] | 16 µg/mL | – | – | – | AB-3167 MIC [2, 6]: ≧64 mg/L; EC-1 MIC ([3]; Escherichia coli EC-1): 4 µg/mL; PA-7 MIC [4, 7]: 2 µg/mL; IC50 [5, 8]: 0.374 nM
CC(CCc1ccc(-c2ccc(C#N)cc2F)cc1)(C(=O)NO)S(C)(=O)=O (centres unmarked) [Example 128] | 8 µg/mL | ≧64 mg/L | 0.5 µg/mL | 0.5 µg/mL | IC50 [5, 8]: 0.232 nM
CC(=O)c1ccc(-c2ccc(CCC(C)(C(=O)NO)S(C)(=O)=O)cc2)cc1O (centres unmarked) [Example 181] | 8 µg/mL | 8 µg/mL | 0.5 µg/mL | 2 µg/mL | IC50 [5, 8]: 0.138 nM
CC(CCc1ccc(OCCCOc2ccccc2)cc1)(C(=O)NO)S(C)(=O)=O (centres unmarked) [Example 297, N-hydroxy-2-methyl-2-(methylsulfonyl)-4-[4-(3-phenoxypropoxy)phenyl]butanamide] | ≧64 mg/L | – | – | – | MIC ([2]; Table 3, read-out: AB-3167 MIC): 32 µg/mL (≈ 75.9 µM); MIC ([3]; read-out: EC-1 MIC): 16 µg/mL (≈ 38 µM); MIC ([4]; Table 3, read-out: PA-7 MIC): ≥ 64 µg/mL; IC50 [5, 12]: 42.5 nM
C[C@@](CCc1ccc(-c2ccc(OCC(=O)N3CC(O)C3)cc2)cc1)(C(=O)NO)S(C)(=O)=O [Example 223] | 32 µg/mL | – | – | – | AB-3167 MIC [2, 6]: ≧64 mg/L; EC-1 MIC ([3]; Escherichia coli EC-1): 16 µg/mL; PA-7 MIC [4, 7]: 8 µg/mL; IC50 [5, 8]: 0.507 nM
C#CCOc1ccc(CCC(C)(C(=O)NO)S(C)(=O)=O)cc1 (centres unmarked) [Example 265, N-hydroxy-2-methyl-2-(methylsulfonyl)-4-[4-(prop-2-yn-1-yloxy)phenyl)butanamide] | ≧64 mg/L | – | – | – | MIC ([2]; Table 3, read-out: AB-3167 MIC): ≥ 64 µg/mL; MIC ([3]; read-out: EC-1 MIC): ≥ 64 µg/mL; MIC ([4]; Table 3, read-out: PA-7 MIC): 16 µg/mL (≈ 49.2 µM); IC50 [5, 12]: 105 nM
CC(C)c1ccc(-c2noc(COc3ccc(CCC(C)(C(=O)NO)S(C)(=O)=O)cc3)n2)cc1 (centres unmarked) [Example 299, N-hydroxy-4-(4-{[3-(4-isopropylphenyl)-1,2,4-oxadiazol-5-yl]methoxy}phenyl)-2-methyl-2-(methylsulfonyl)butanamide] | ≧64 mg/L | – | – | – | MIC ([2]; Table 3, read-out: AB-3167 MIC): ≥ 64 µg/mL; MIC ([3]; read-out: EC-1 MIC): 16 µg/mL (≈ 32.8 µM); MIC ([4]; Table 3, read-out: PA-7 MIC): ≥ 64 µg/mL; IC50 [5, 12]: 3.93 nM
COc1cccc(-c2ccc(CC[C@](C)(C(=O)NO)S(C)(=O)=O)cc2)c1 [Example 170] | ≧64 mg/L | 16 µg/mL | ≧64 mg/L | ≧64 mg/L | IC50 [5, 8]: 54 nM
Cc1cc(O)ccc1-c1ccc(CCC(C)(C(=O)NO)S(C)(=O)=O)cc1 (centres unmarked) [Example 140] | ≧64 mg/L | ≧64 mg/L | 32 µg/mL | 4 µg/mL | –
CC(CCc1ccc(OCCC2CC2)cc1)(C(=O)NO)S(C)(=O)=O (racemic) [Example 17, (+/−)-4-[4-(2-Cyclopropylethoxy)phenyl]-N-hydroxy-2-methyl-2-(methylsulfonyl)butanamide] | ≧64 mg/L | – | – | – | MIC [2, 13]: 32 µg/mL (≈ 90 µM); MIC ([3]; read-out: EC-1: (MIC)): 32 µg/mL (≈ 90 µM); MIC [4, 14]: 8 µg/mL (≈ 22.5 µM)
CC(CCc1ccc(-c2ccc(C#N)c(F)c2)cc1)(C(=O)NO)S(C)(=O)=O (centres unmarked) [Example 45] | 4 µg/mL | ≧64 mg/L | 0.5 µg/mL | 1 µg/mL | –
Cc1cc(OCCO)ccc1-c1ccc(CCC(C)(C(=O)NO)S(C)(=O)=O)cc1 (centres unmarked) [Example 151] | 32 µg/mL | ≧64 mg/L | 8 µg/mL | 4 µg/mL | –
Cc1nc(-c2ccc(CCC(C)(C(=O)NO)S(C)(=O)=O)cc2)ccc1C#N (centres unmarked) [Example 131] | 16 µg/mL | ≧64 mg/L | 4 µg/mL | 4 µg/mL | –
CC(CCc1ccc(OCc2nc(-c3cccc(F)c3F)no2)cc1)(C(=O)NO)S(C)(=O)=O (centres unmarked) [Example 253, 4-(4-{[3-(2,3-difluorophenyl)-1,2,4-oxadiazol-5-yl]methoxy}phenyl)-N-hydroxy-2-methyl-2-(methylsulfonyl)butanamide] | ≧64 mg/L | – | – | – | MIC ([2]; Table 3, read-out: AB-3167 MIC): ≥ 64 µg/mL; MIC ([3]; read-out: EC-1 MIC): 8 µg/mL (≈ 16.6 µM); MIC ([4]; Table 3, read-out: PA-7 MIC): 32 µg/mL (≈ 66.5 µM)
CS(=O)(=O)C(CCc1ccc(-c2ccc(C#N)cc2)cc1)C(=O)NO (centres unmarked) [Example 28] | ≧64 mg/L | ≧64 mg/L | 32 µg/mL | 2 µg/mL | –
CC(CCc1ccc(Oc2ccccc2)cc1)(C(=O)NO)S(C)(=O)=O (centres unmarked) [Example 10, N-Hydroxy-2-methyl-2-(methylsulfonyl)-4-(4-phenoxyphenyl)butanamide] | 32 µg/mL | – | – | – | MIC [2, 13]: 32 µg/mL (≈ 88 µM); MIC ([3]; read-out: EC-1: (MIC)): 16 µg/mL (≈ 44 µM); MIC [4, 14]: 8 µg/mL (≈ 22 µM)
CC(CCc1ccc(-c2cc(C(F)(F)F)c(C#N)cn2)cc1)(C(=O)NO)S(C)(=O)=O (centres unmarked) [Example 124] | ≧64 mg/L | ≧64 mg/L | 8 µg/mL | 8 µg/mL | –
COc1ccccc1-c1ccc(CCC(C)(C(=O)NO)S(C)(=O)=O)cc1 (centres unmarked) [Example 100] | ≧64 mg/L | ≧64 mg/L | 32 µg/mL | 8 µg/mL | –
CCCCOc1ccc(CCC(C)(C(=O)NO)S(C)(=O)=O)cc1 (centres unmarked) [Example 236, 4-(4-butoxyphenyl)-N-hydroxy-2-methyl-2-(methylsulfonyl)butanamide] | ≧64 mg/L | – | – | – | MIC ([2]; Table 3, read-out: AB-3167 MIC): 32 µg/mL (≈ 93.2 µM); MIC ([3]; read-out: EC-1 MIC): 16 µg/mL (≈ 46.6 µM); MIC ([4]; Table 3, read-out: PA-7 MIC): 8 µg/mL (≈ 23.3 µM)
CC(CCc1ccc(-c2ccc(OCCCCN)cc2)cc1)(C(=O)NO)S(C)(=O)=O (centres unmarked) [Example 118] | ≧64 mg/L | ≧64 mg/L | 32 µg/mL | 16 µg/mL | –
CC(CCc1ccc(-c2cc(F)cc(F)c2)cc1)(C(=O)NO)S(C)(=O)=O (centres unmarked) [Example 97] | 4 µg/mL | 8 µg/mL | 2 µg/mL | 1 µg/mL | –
CC(CCc1ccc(-c2ccc(C#N)s2)cc1)(C(=O)NO)S(C)(=O)=O (racemic) [Example 82] | 2 µg/mL | 8 µg/mL | 0.5 µg/mL | 0.5 µg/mL | –
CSc1ccc(-c2ccc(CCC(C)(C(=O)NO)S(C)(=O)=O)cc2)cc1 (centres unmarked) [Example 40] | 2 µg/mL | 16 µg/mL | 0.5 µg/mL | 2 µg/mL | –
CC(CCc1ccc(OCc2nc(-c3cc(F)cc(F)c3)no2)cc1)(C(=O)NO)S(C)(=O)=O (centres unmarked) [Example 255, 4-(4-{[3-(3,5-difluorophenyl)-1,2,4-oxadiazol-5-yl]methoxy}phenyl)-N-hydroxy-2-methyl-2-(methylsulfonyl)butanamide] | ≧64 mg/L | – | – | – | MIC ([2]; Table 3, read-out: AB-3167 MIC): 16 µg/mL (≈ 33.2 µM); MIC ([3]; read-out: EC-1 MIC): 16 µg/mL (≈ 33.2 µM); MIC ([4]; Table 3, read-out: PA-7 MIC): ≥ 64 µg/mL
CC(CCc1ccc(OCc2cc(C#N)ccc2F)cc1)(C(=O)NO)S(C)(=O)=O (centres unmarked) [Example 275, 4-{4-[(5-cyano-2-fluorobenzyl)oxy]phenyl}-N-hydroxy-2-methyl-2-(methylsulfonyl)butanamide] | ≧64 mg/L | – | – | – | MIC ([2]; Table 3, read-out: AB-3167 MIC): ≥ 64 µg/mL; MIC ([3]; read-out: EC-1 MIC): ≥ 64 µg/mL; MIC ([4]; Table 3, read-out: PA-7 MIC): 32 µg/mL (≈ 76.1 µM)
CC(CCc1ccc(-c2ccc(OCCN)cc2)cc1)(C(=O)NO)S(C)(=O)=O (centres unmarked) [Example 116] | ≧64 mg/L | ≧64 mg/L | ≧64 mg/L | 4 µg/mL | –
Cc1cccc(-c2ccc(CCC(C)(C(=O)NO)S(C)(=O)=O)cc2)c1 (racemic) [Example 87] | 4 µg/mL | 8 µg/mL | 2 µg/mL | 1 µg/mL | –
COC(C)c1ccc(-c2ccc(CCC(C)(C(=O)NO)S(C)(=O)=O)cc2)cc1 (mixture of isomers) [Example 71] | 16 µg/mL | 32 µg/mL | 4 µg/mL | 4 µg/mL | –
CCC(CC)COc1ccc(CCC(C)(C(=O)NO)S(C)(=O)=O)cc1 (centres unmarked) [Example 239, 4-[4-(2-ethylbutoxy)phenyl]-N-hydroxy-2-methyl-2-(methylsulfonyl)butanamide] | ≧64 mg/L | – | – | – | MIC ([2]; Table 3, read-out: AB-3167 MIC): 4 µg/mL (≈ 10.8 µM); MIC ([3]; read-out: EC-1 MIC): 16 µg/mL (≈ 43.1 µM); MIC ([4]; Table 3, read-out: PA-7 MIC): 8 µg/mL (≈ 21.5 µM)
CSc1ccccc1-c1ccc(CCC(C)(C(=O)NO)S(C)(=O)=O)cc1 (centres unmarked) [Example 94] | ≧64 mg/L | ≧64 mg/L | 32 µg/mL | 32 µg/mL | –
